Reference: patent US20260151425A1, “COMPOSITIONS AND METHODS OF USE THEREOF” (SYNEDGEN, INC., priority 2020, published 2026)
Like-named read-outs stand apart in the source and are kept apart here.

Assays:
MABSC biofilm = assay: 2D MBEC checkerboard assay, antibiotic potentiation in biofilm; type: cell-based, Mycobacterium abscessus complex; conditions: for Fold Change: MBEC alone vs MBEC with PAAG 128 μg/mL; for MBEC: antibiotic alone; for MBEC with PAAG: antibiotic with PAAG at half of its MBEC (128 μg/mL)
Experimental: (§1) PAAG synergy with conventional antibiotics was determined by 2D checkerboard analysis. PAAG's antimicrobial activity and antibiotic potentiation in a biofilm were determined by minimum biofilm eradication concentration (MBEC) and 2D MBEC checkerboard assays to determine antibiotic potentiation with PAAG within a biofilm.

[1] = tested on: M. abscessus subsp. bolletii NTM 0003; assay: MIC of CF NTM clinical isolates; type: cell-based; conditions: for CLSI clinical breakpoint category: NTM 0003; for MIC: M. abscessus subsp. bolletii NTM 0003
M. gordonae NTM 0274 = assay: MIC of CF NTM clinical isolates; type: cell-based; conditions: for CLSI clinical breakpoint category: NTM 0274; for MIC: M. gordonae NTM 0274
[2] = tested on: M. avium complex NTM 0260; assay: MIC of CF NTM clinical isolates; type: cell-based; conditions: for CLSI clinical breakpoint category: NTM 0260; for MIC: M. avium complex NTM 0260
[3] = tested on: M. abscessus subsp. abscessus NTM 0079; assay: MIC of CF NTM clinical isolates; type: cell-based; conditions: for CLSI clinical breakpoint category: NTM 0079; for MIC: M. abscessus subsp. abscessus NTM 0079
MABSC NTM 0082 = assay: 2D checkerboard analysis, antibiotic MIC with PAAG; type: cell-based, Mycobacterium abscessus complex; conditions: for Fold Change: MIC alone vs MIC with PAAG 128 μg/mL; for MIC: Mycobacteroides abscessus
Experimental: as §1

[4] = tested on: M. avium complex NTM 0813; assay: MIC of CF NTM clinical isolates; type: cell-based; conditions: for CLSI clinical breakpoint category: NTM 0813; for MIC: M. avium complex NTM 0813
[5] = tested on: M. abscessus subsp. abscessus NTM 0082; assay: MIC of CF NTM clinical isolates; type: cell-based; conditions: for CLSI clinical breakpoint category: NTM 0082; for MIC: M. abscessus subsp. abscessus NTM 0082
MAC biofilm = assay: 2D MBEC checkerboard assay, antibiotic potentiation in biofilm; type: cell-based, Mycobacterium avium complex; conditions: for Fold Change: MBEC alone vs MBEC with PAAG 8 μg/mL; for MBEC: antibiotic alone; for MBEC with PAAG: antibiotic with PAAG at half of its MBEC (8 μg/mL)
Experimental: as §1
In addition, PAAG potentiates antibiotics against NTM in biofilms as measured with minimum biofilm eradication concentration (MBEC) (Table 3).

MAC NTM 0260 = assay: 2D checkerboard analysis, antibiotic MIC with PAAG; type: cell-based, Mycobacterium avium complex; conditions: for Fold Change: MIC alone vs MIC with PAAG 8 μg/mL; for MIC: Mycobacterium avium
Experimental: as §1

[6] = tested on: biofilm cultures of Mycobacteria isolates; assay: Static biofilm assay with crystal violet staining; type: cell-based; conditions: 48 hour biofilms treated for an hour; increasing dose of PAAG
Experimental: (§2) Biofilm cultures of Mycobacteria isolates were grown for 48 hours in static 96-well plates at 37 C on a static incubator. The biofilm cultures were treated using PAAG alone and in formulation with 1.38% glycerol for an hour. The MBEC assay measured the logarithmic reduction in the growth of biofilm by serial dilution and spot plate method. […] The static assay was used to measure the decrease in biofilm density as the dose of PAAG increases by staining each well with crystal violet and measuring the biofilm densities at 590 nm.
The biofilm biomass was quantified using crystal violet staining in static TCP biofilm assay.

MABSC cultures = assay: Modified time kill analysis with 7-day recovery phase; type: cell-based, Mycobacterium abscessus complex; conditions: PAAG 250 μg/mL
Experimental: For MABSC cultures, a modified time kill analysis was performed over a period of 12 days and included a 7-day recovery phase in antimicrobial free media post treatment. PAAG treatment led to eradication of MABSC cell population within 48 hours of treatment.

[7] = tested on: biofilm cultures of Mycobacteria isolates; assay: MBEC assay, logarithmic reduction of biofilm growth; type: cell-based; conditions: 48 hour biofilms treated for an hour; varies from strain to strain
Experimental: as §2

MAC cultures = assay: Modified time kill analysis with 7-day recovery phase; type: cell-based, Mycobacterium avium complex; conditions: PAAG 250 μg/mL
Experimental: For MAC cultures, a modified time kill analysis was performed over a period of 21 days and included a 7-day recovery phase in antimicrobial free media post treatment. PAAG treatment led to eradication of MAC cell population within 4 days of treatment.

MABSC persister cells = assay: PAAG treatment of antibiotic induced NTM persisters; type: cell-based, Mycobacterium abscessus complex
Description: (§3) The cultures were then pelleted, washed free of antibiotics and resuspended in broth free of any antimicrobials (i.e., recovery phase).

NTM biofilms = assay: Optical measurement of biofilm thickness; type: cell-based; conditions: PAAG at 50, 100 and 200 μg/mL
Description: The biofilm thickness was optically measured assuming the Refractive Index (RI) of the biofilm was equal to water per Bakke & Olsson, et al., (1986).

MAC persister cells = assay: PAAG treatment of antibiotic induced NTM persisters; type: cell-based, Mycobacterium avium complex
Description: as §3

[8] = Mycobacteroides abscessus, read-out: MIC
[9] = Mycobacterium gordonae, NTM0274, read-out: MIC
[10] = Mycobacterium avium, read-out: MIC
[11] = antibiotic alone, read-out: MIC
[12] = antibiotic with PAAG at half of its MIC (128 μg/mL), read-out: MIC with PAAG
[13] = antibiotic alone, MAC NTM 0260, read-out: MIC

Molecule	Fold Change (MABSC biofilm)	MBEC (MABSC biofilm) [µg/mL]	MBEC with PAAG (MABSC biofilm) [µg/mL]	MIC [1, 8] [µg/mL]	MIC (M. gordonae NTM 0274; [9]) [µg/mL]	MIC [2, 10] [µg/mL]	MIC [3, 8] [µg/mL]	Fold Change (MABSC NTM 0082)	MIC (MABSC NTM 0082; [11]) [µg/mL]	MIC (MABSC NTM 0082; [12]) [µg/mL]	MIC [4, 10] [µg/mL]	MIC [5, 8] [µg/mL]	Fold Change (MAC biofilm)	MBEC (MAC biofilm) [µg/mL]	MBEC with PAAG (MAC biofilm) [µg/mL]	Fold Change (MAC NTM 0260; MAC NTM 0260)	MIC (MAC NTM 0260; [13]) [µg/mL]	MIC (MAC NTM 0260; read-out: MIC with PAAG) [µg/mL]	further results
NCC[C@H](O)C(=O)N[C@@H]1C[C@H](N)[C@@H](O[C@H]2O[C@H](CN)[C@@H](O)[C@H](O)[C@H]2O)[C@H](O)[C@H]1O[C@H]1O[C@H](CO)[C@@H](O)[C@H](N)[C@H]1O [Amikacin]	>512	>1024	2	4	< 0.0625	2	8	533	32	0.06	2	8							CLSI clinical breakpoint category ([1]; Amikacin breakpoints): (S) (≤16 μg/mL (S)); CLSI clinical breakpoint category (M. gordonae NTM 0274; Amikacin breakpoints): (S) (≤16 μg/mL (S)); CLSI clinical breakpoint category ([2]; Amikacin breakpoints): (S) (≤16 μg/mL (S)); CLSI clinical breakpoint category ([3]; Amikacin breakpoints): (R) (≥64 μg/mL (R) for Amikacin); CLSI clinical breakpoint category ([4]; Amikacin breakpoints): (S) (≤16 μg/mL (S)); CLSI clinical breakpoint category ([5]; Amikacin breakpoints): (R) (≥64 μg/mL (R) for Amikacin)
CC[C@H]1OC(=O)[C@H](C)[C@@H](O[C@H]2C[C@@](C)(OC)[C@@H](O)[C@H](C)O2)[C@H](C)[C@@H](O[C@@H]2O[C@H](C)C[C@H](N(C)C)[C@H]2O)[C@](C)(O)C[C@@H](C)CN(C)[C@H](C)[C@@H](O)[C@]1(C)O [Azithromycin]				32	2	2	32				2	32	8	8	1	4	2	0.5	CLSI clinical breakpoint category ([1]; Azithromycin breakpoints): (R) (≥8 μg/mL (R)); CLSI clinical breakpoint category (M. gordonae NTM 0274; Azithromycin breakpoints): (I) (4 μg/mL (I)); CLSI clinical breakpoint category ([2]; Azithromycin breakpoints): (I) (4 μg/mL (I)); CLSI clinical breakpoint category ([3]; Azithromycin breakpoints): (R) (≥8 μg/mL (R)); CLSI clinical breakpoint category ([4]; Azithromycin breakpoints): (I) (4 μg/mL (I)); CLSI clinical breakpoint category ([5]; Azithromycin breakpoints): (R) (≥8 μg/mL (R))
O=C(O)c1cn(C2CC2)c2cc(N3CCNCC3)c(F)cc2c1=O [Ciprofloxacin]		>1024																	
CC[C@@H](CO)NCCN[C@@H](CC)CO [Ethambutol]	>512	>1024	2	8	2	2	32	128	32	0.25	2	32	>32	>8	<0.25	2	2	1	CLSI clinical breakpoint category ([1]; Ethambutol breakpoints): R (≥2 μg/mL (R) for Ethambutol); CLSI clinical breakpoint category (M. gordonae NTM 0274; Ethambutol breakpoints): R (≥2 μg/mL (R) for Ethambutol); CLSI clinical breakpoint category ([2]; Ethambutol breakpoints): R (≥2 μg/mL (R) for Ethambutol); CLSI clinical breakpoint category ([3]; Ethambutol breakpoints): R (≥2 μg/mL (R) for Ethambutol); CLSI clinical breakpoint category ([4]; Ethambutol breakpoints): R (≥2 μg/mL (R) for Ethambutol); CLSI clinical breakpoint category ([5]; Ethambutol breakpoints): R (≥2 μg/mL (R) for Ethambutol)
CO[C@H]1/C=C/O[C@@]2(C)Oc3c(C)c(O)c4c(O)c(c(/C=N/N5CCN(C)CC5)c(O)c4c3C2=O)NC(=O)/C(C)=C\C=C\[C@H](C)[C@H](O)[C@@H](C)[C@@H](O)[C@@H](C)[C@H](OC(C)=O)[C@@H]1C [Rifampicin]	>512	>1024	2	8	2	4	2	21	2	0.06	4	2	>32	8	<0.25	4	4	1	CLSI clinical breakpoint category ([1]; Rifampicin breakpoints): R (≥1 μg/mL (R) for Rifampicin); CLSI clinical breakpoint category (M. gordonae NTM 0274; Rifampicin breakpoints): R (≥1 μg/mL (R) for Rifampicin); CLSI clinical breakpoint category ([2]; Rifampicin breakpoints): R (≥1 μg/mL (R) for Rifampicin); CLSI clinical breakpoint category ([3]; Rifampicin breakpoints): R (≥1 μg/mL (R) for Rifampicin); CLSI clinical breakpoint category ([4]; Rifampicin breakpoints): R (≥1 μg/mL (R) for Rifampicin); CLSI clinical breakpoint category ([5]; Rifampicin breakpoints): R (≥1 μg/mL (R) for Rifampicin)
poly(acetyl, arginyl) glucosamine [PAAG]																			biofilm density (crystal violet, 590 nm) [6]: dose dependent reduction in the density of the bacteria; MIC [1]: 128 µg/mL; time to eradication of MABSC cell population (MABSC cultures; time kill over 12 days): ≤ 48 h; killing outcome (MABSC cultures; rapid growing MABSC): complete eradication; log reduction in biofilm compared to the control [7]: two to three log reduction; time to eradication of MAC cell population (MAC cultures; time kill over 21 days): ≤ 4 days; killing outcome (MAC cultures; slow growing MAC): complete eradication; MIC (M. gordonae NTM 0274): 32 µg/mL; MIC [2]: 16 µg/mL; CFU/mL after PAAG treatment of persisters (MABSC persister cells; MABSC cultures surviving antibiotic treatment, PAAG for 4 days): 0 CFU/mL; regrowth of persisters after PAAG treatment (MABSC persister cells; MABSC, recovery in fresh broth 12 days): none of the persisters in either strain showed regrowth; MIC [3]: 250 µg/mL; MIC [4]: 16 µg/mL; biofilm thickness (NTM biofilms): reduction in BCC biofilm thickness in a dose dependent manner; bacterial viability at depth in biofilm (NTM biofilms; depths >5-10 μm): significantly decreased bacterial viability; MIC [5]: 250 µg/mL; CFU/mL after PAAG treatment of persisters (MAC persister cells; MAC cultures surviving antibiotic treatment, PAAG for 10 days): 0 CFU/mL; regrowth of persisters after PAAG treatment (MAC persister cells; MAC, recovery in fresh broth 24 days): none of the persisters in either strain showed regrowth
